Source: ChEMBL document CHEMBL1201862, “PubChem BioAssay data set” (2004)
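Values below derive from 48-hour exposures of cells grown in 96-well plates, with endpoints linearly interpolated between the two concentrations bracketing the appropriate inhibition level. GI50 is the concentration that inhibits growth by half.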 Calls of active or inactive are those of the source. No stated cut-off is given here; in the data, active = GI50 up to about 1.1 µM and inactive = higher.

Assays:
Assay in all cases: growth of human tumour cells (NCI), 48 h
A498 = test system: A498
CAKI-1 = test system: CAKI-1
DMS-114 = test system: DMS-114
HCC 2998 = test system: HCC 2998
HCT-116 = test system: HCT-116
HCT-15 = test system: HCT-15
HL-60 = test system: HL-60
IGROV-1 = test system: IGROV-1
KM12 = test system: KM12
LOX IMVI = test system: LOX IMVI
Malme-3M = test system: Malme-3M
NCI-H226 = test system: NCI-H226
SF-268 = test system: SF-268
SK-MEL-28 = test system: SK-MEL-28
SK-MEL-2 = test system: SK-MEL-2
SNB-19 = test system: SNB-19
SNB-75 = test system: SNB-75
SW-620 = test system: SW-620
UACC-257 = test system: UACC-257
M19-MEL = test system: M19-MEL

SMILES | GI50 (A498) | GI50 (CAKI-1) | GI50 (DMS-114) | GI50 (HCC 2998) | GI50 (HCT-116) | GI50 (HCT-15) [µM] | GI50 (HL-60) | GI50 (IGROV-1) | GI50 (KM12) | GI50 (LOX IMVI) | GI50 (Malme-3M) | GI50 (NCI-H226) | GI50 (SF-268) | GI50 (SK-MEL-28) | GI50 (SK-MEL-2) | GI50 (SNB-19) | GI50 (SNB-75) | GI50 (SW-620) | GI50 (UACC-257) | GI50 (M19-MEL)
CCCCC#CS(=O)(=O)C(F)(F)F | 44.9 µM (inactive) | 0.605 µM (active) | 37.2 µM (inactive) | > 31.6 µM (inactive) | 36 µM (inactive) | 90.4 | 23.2 µM (inactive) | > 100 µM (inactive) | > 83.9 µM (inactive) | 60.7 µM (inactive) | > 100 µM (inactive) | > 100 µM (inactive) | > 72.4 µM (inactive) | > 60 µM (inactive) | > 36.8 µM (inactive) | > 90.2 µM (inactive) | 36.6 µM (inactive) | > 100 µM (inactive) | 12.9 µM (inactive) | 
N#CC(Nc1cccc(C(F)(F)F)c1)c1ccccc1C(F)(F)F (configuration not stated) | 19.1 µM (inactive) | 2.73 µM (inactive) | 8.91 µM (inactive) | 7.78 µM (inactive) | 7.66 µM (inactive) | 7 | 4.9 µM (inactive) | 22.7 µM (inactive) | 7.52 µM (inactive) | 5.51 µM (inactive) | 7.33 µM (inactive) | 15.9 µM (inactive) | 17.2 µM (inactive) | 17.9 µM (inactive) | 7.21 µM (inactive) | 17.3 µM (inactive) | 18.3 µM (inactive) | 3.08 µM (inactive) | 14.6 µM (inactive) | 7.23 µM (inactive)
COc1ccc(C2C3CCCC(C3=O)C(c3ccc(OC)cc3)N2N=O)cc1 (configuration not stated) | 15.2 µM (inactive) | 29.9 µM (inactive) | 23.1 µM (inactive) | 28.9 µM (inactive) | 29 µM (inactive) | 36.9 | 25.2 µM (inactive) | 35.5 µM (inactive) | 29.6 µM (inactive) | 18 µM (inactive) | 7.85 µM (inactive) | 23.3 µM (inactive) | 48.5 µM (inactive) | 40.3 µM (inactive) | 20.5 µM (inactive) | 36.3 µM (inactive) | 26.5 µM (inactive) | 42.9 µM (inactive) | 27.9 µM (inactive) | 32.4 µM (inactive)
CN(Cc1cnc2nc(N)nc(N)c2n1)c1ccc(C(=O)NC(CCC(=O)O)C(=O)O)cc1 (configuration not stated) | > 100 µM (inactive) | < 0.0157 µM (active) |  | 41.5 µM (inactive) | < 0.01 µM (active) | < 0.01 | < 0.01 µM (active) | 0.082 µM (active) | < 0.0164 µM (active) | < 0.01 µM (active) | 7.29 µM (inactive) | 5.38 µM (inactive) | < 0.0298 µM (active) | 1.25 µM (inactive) | > 100 µM (inactive) | 0.619 µM (active) | > 57 µM (inactive) | < 0.01 µM (active) | 0.815 µM (active) | 
O=S(O)c1cc(Cl)c(O)c(Cl)c1 | > 100 µM (inactive) |  | > 100 µM (inactive) | > 100 µM (inactive) | > 100 µM (inactive) |  | > 100 µM (inactive) |  | > 100 µM (inactive) | > 100 µM (inactive) | > 100 µM (inactive) |  | > 100 µM (inactive) | > 100 µM (inactive) | > 100 µM (inactive) | > 100 µM (inactive) | > 100 µM (inactive) |  | > 100 µM (inactive) | > 100 µM (inactive)
COC(=O)c1nc(-c2ccc3c(n2)C(=O)C(=N)C(OC)=C3O)c(N)c(-c2ccc(OC)c(OC)c2O)c1C | 1.61 µM (inactive) | 0.628 µM (active) | 0.415 µM (active) | 0.128 µM (active) | 0.738 µM (active) | 1.13 | 0.357 µM (active) | 1.7 µM (inactive) | 1.68 µM (inactive) | 0.29 µM (active) | 0.524 µM (active) | 0.324 µM (active) | 0.769 µM (active) | 1.33 µM (inactive) | 1.47 µM (inactive) | 0.628 µM (active) | 0.984 µM (active) | 1.33 µM (inactive) | 0.419 µM (active) | 0.254 µM (active)
COC(=O)C1=C(C)N2CCCOC2(C)C(C(=O)OC)C1c1cccc(Cl)c1 (configuration not stated) |  | 17.5 µM (inactive) | 19.1 µM (inactive) | 35.3 µM (inactive) | 25 µM (inactive) |  | 16.4 µM (inactive) | 25.7 µM (inactive) | 17.9 µM (inactive) |  |  | 17.8 µM (inactive) | 32.8 µM (inactive) | 21.7 µM (inactive) | 18.1 µM (inactive) | 42.3 µM (inactive) | 0.452 µM (active) | > 100 µM (inactive) | 19.7 µM (inactive) | 20.6 µM (inactive)
CCCSCC(P(=O)(O)O)P(=O)(O)O.NC1CCCCC1 | 8.59 µM (inactive) | > 100 µM (inactive) | > 100 µM (inactive) | > 100 µM (inactive) | > 100 µM (inactive) | > 100 | > 100 µM (inactive) | > 100 µM (inactive) | 7.46 µM (inactive) | > 100 µM (inactive) | > 100 µM (inactive) | > 100 µM (inactive) | > 100 µM (inactive) | > 100 µM (inactive) | > 100 µM (inactive) | > 100 µM (inactive) | > 100 µM (inactive) | > 100 µM (inactive) | > 100 µM (inactive) | > 100 µM (inactive)
CO[C@@]12[C@H](COC(N)=O)C3=C(C(=O)C(C)=C(N)C3=O)N1C[C@@H]1N[C@@H]12 [MITOMYCIN] | 0.714 µM (active) |  |  | 0.614 µM (active) | 0.701 µM (active) | 1.29 | 0.204 µM (active) | 2.9 µM (inactive) | 2.22 µM (inactive) |  | 0.796 µM (active) | 0.714 µM (active) |  | 1.75 µM (inactive) | 1.65 µM (inactive) |  |  | 0.485 µM (active) | 1.21 µM (inactive) | 
COc1ccc2[nH]cc(/C=C(/C)c3ccncc3)c2c1 | 5.07 µM (inactive) | 9.73 µM (inactive) | 2.62 µM (inactive) | 8.24 µM (inactive) | 4.15 µM (inactive) | 1.19 | 1.44 µM (inactive) | 13.2 µM (inactive) | 2.44 µM (inactive) | 6.28 µM (inactive) |  | 22.6 µM (inactive) | 11.1 µM (inactive) | 4.94 µM (inactive) | 5.38 µM (inactive) | 50.6 µM (inactive) | 2.38 µM (inactive) | 3.83 µM (inactive) | 7.48 µM (inactive) | 3.72 µM (inactive)
COc1ccc(/C(C=O)=C(\Cl)c2ccc(OC)c(OC)c2)cc1 | 18.4 µM (inactive) | > 100 µM (inactive) | 81.3 µM (inactive) | > 100 µM (inactive) | > 100 µM (inactive) | > 100 | 24 µM (inactive) | > 100 µM (inactive) |  | > 100 µM (inactive) | > 100 µM (inactive) | > 100 µM (inactive) | 46.1 µM (inactive) |  | > 100 µM (inactive) | > 100 µM (inactive) | 22.6 µM (inactive) | > 100 µM (inactive) | > 100 µM (inactive) | > 100 µM (inactive)
Nc1ccc(OCC(O)N2C(=O)c3ccccc3C2=O)cc1 (configuration not stated) |  | < 0.01 µM (active) |  | > 100 µM (inactive) | > 100 µM (inactive) | > 100 | > 100 µM (inactive) | > 100 µM (inactive) |  | > 100 µM (inactive) | > 100 µM (inactive) |  | > 100 µM (inactive) | > 100 µM (inactive) |  | > 100 µM (inactive) |  | 76.9 µM (inactive) | > 100 µM (inactive) | 
CSCC[C@@H]1C(=O)N(C)[C@H](C(C)(C)C)N1C(=O)c1ccccc1 | > 100 µM (inactive) |  | > 100 µM (inactive) | > 100 µM (inactive) | > 100 µM (inactive) | > 100 | > 100 µM (inactive) | > 100 µM (inactive) | > 100 µM (inactive) | > 100 µM (inactive) | > 100 µM (inactive) | > 100 µM (inactive) | > 100 µM (inactive) | > 100 µM (inactive) | > 100 µM (inactive) | > 100 µM (inactive) | > 100 µM (inactive) | > 100 µM (inactive) | > 100 µM (inactive) | > 100 µM (inactive)
COC1/C=C\C=C(/C)C(=O)NC2=CC(=O)C=C(C2=O)C(OC)C(C)CC(OC)C(OC)C(C)/C=C(/C)C1OC(N)=O (configuration not stated) | 15.1 µM (inactive) | 12.2 µM (inactive) | 1.12 µM (inactive) | 2.66 µM (inactive) | 1.34 µM (inactive) | 3.38 | 0.132 µM (active) | 12.7 µM (inactive) | 5.7 µM (inactive) | 3.19 µM (inactive) | 0.189 µM (active) | 21.8 µM (inactive) | 11.5 µM (inactive) | 2.59 µM (inactive) | 2.31 µM (inactive) | 14.1 µM (inactive) | 17.3 µM (inactive) | 0.146 µM (active) | 1.37 µM (inactive) | 2.2 µM (inactive)
CCCNC(=O)Nc1c([N+](=O)[O-])cc(C(F)(F)F)cc1[N+](=O)[O-] | > 100 µM (inactive) | > 100 µM (inactive) |  |  | 25.3 µM (inactive) | 51.8 | 24.5 µM (inactive) | > 100 µM (inactive) | 55.5 µM (inactive) | 62.8 µM (inactive) |  | > 100 µM (inactive) | > 100 µM (inactive) | > 100 µM (inactive) | > 100 µM (inactive) | > 100 µM (inactive) | 34 µM (inactive) | 40.8 µM (inactive) | 36.3 µM (inactive) | 42.8 µM (inactive)
